Results from patent US5260479A, “Inhibitors of farnesyl protein transferase” (Merck & Co., Inc., priority 1991, dated 1993).

Biological target: T1, Farnesyl-protein transferase (FTase) (Bos taurus, UniProt P29702+P49355)
T1 construct: Farnesyl-protein transferase (FTase) from bovine brain was chromatographed; from tissue; host or cells: bovine brain
Test: In Vitro Inhibition of Ras Farnesyl Transferase (inhibition of Ras-CVLS farnesylation)
Type: biochemical
Conditions: partially purified bovine brain FTase; Ras-CVLS 3.5 μM, 0.25 μM [3H]FPP
Protocol: Farnesyl-protein transferase (FTase) from bovine brain was chromatographed on DEAE-Sephacel (Pharmacia, 0-0.8M NaCl gradient elution), N-octyl agarose (Sigma, 0-0.6M NaCl gradient elution), and a mono Q HPLC column (Pharmacia, 0-0.3M NaCl gradient). Ras-CVLS at 3.5 μM, 0.25 μM [^3 H]FPP, and the indicated compounds were incubated with this partially purified enzyme preparation. The FTase inhibitory data presented below is a measurement of the ability of the test compound to inhibit Ras farnesylation in vitro.

Row | IC50 | SMILES
1 | 1.7 µM | C=C(C(=O)O)C(CCCCCCCCCCCCCC)C(=O)O (centres unmarked) [B]
2 | 7.7 µM | CCCCCCCCCCCCCC/C(C(=O)O)=C(/C)C(=O)O [A]
